Reference: patent publication US8557804B2, “Nicotinic receptor agonists for the treatment of inflammatory diseases” (priority 2002, dated 2013)
Values joined by “and” are separate entries in the source; they are usually repeats but may differ in a detail not shown here. Equal values may be shown once. “Also recorded” adds a separate entry of the source. Where a name gives a salt, the structure may show the parent alone. Read-outs that look alike come from different tables or passages of the source.

Columns and labels:
[1] = test system: lung resistance in hyperresponsive dogs; assay: Dog model of lung hyper-responsiveness to metacholine; type: in vivo; conditions: 12 hyperresponsive dogs
Description: (§1) In this model 12 dogs naturally sensitized to the roundworm Ascaris suum were used in a cross-over study design. Four groups of 3 dogs were randomly formed, exposed to the allergen, and each animal was left either untreated or received alternatively, ASM-002 (4 mg/kg 2× day in the food), or prednisone (1 mg/kg 1× day in the food), the most commonly used corticosteroid drug used to treat inflammation in asthma.
Hyper-responsiveness is described as the capacity of the lung to react (to increase lung resistance) to a non-specific external stimuli like metacholine or to allergens A hyper-responsive allergen-sensitized dog (asthmatic) will react to lower concentrations of metacholine compared to a non allergic dog. Similarly, improvement in lung hyper-responsiveness is shown by an increase in metacholine concentrations necessary to induce the same level of lung resistance.
Increasing concentrations of metacholine were administered with or without treatment with ASM-002 or Prednisone™ and lung resistance recorded.

[2] = test system: blood eosinophils; assay: Blood eosinophil transmigration through an artificial basement membrane (Matrigel coated chemotaxis chamber); type: cell-based
Source text: Infiltration of eosinophils and other inflammatory cells into lung tissues is an important feature of asthma and the cause of airway inflammation and hyper-responsiveness. The passage of inflammatory cells from the circulation to the lung involves migration through the vascular endothelium, the basement membrane, and extra-cellular matrix components. Inflammatory cells cross the basement membrane by producing proteinases. In these preliminary in vitro experiments, the effects of various nicotinic agonists on the migration of purified blood eosinophils through an artificial basement membrane (Matrigel® coated chemotaxis chamber) were investigated. […] Results are expressed as a percentage of inhibition (agonists-treated cells) compared to the control condition without the agonists.

[3] = test system: collagen 1A mRNA expression by normal human lung fibroblasts; assay: Collagen A1 gene expression by RT-PCR in primary normal lung fibroblasts; type: cell-based
Description: Asthma is characterized by airway structural changes, including sub-epithelial collagen deposition, that may be a cause for the chronicity of the disease. An imbalance between collagen synthesis and its degradation by fibroblasts may be involved in this process (56). In preliminary experiments, we investigated the effects of nicotinic agonists on collagen A1 synthesis produced by primary normal fibroblasts. Collagen A1 gene expression was evaluated by RT-PCR.
The results are expressed percentage gene expression in agonists treated cells compared to non-treated cells.

[4] = reference (40); cited from earlier work
[5] = test system: SR-induced inflammation in mice; assay: Short term SR-induced acute lung inflammation in mice, BAL cells; type: in vivo
Source text: The Intranasal instillation of Saccharopolyspora rectivirgula (SR) antigens, the causative agent for farmer's lung, to mice, induces a prominent inflammatory response in the lung. Neutrophils are the first inflammatory cells recruited at the site of inflammation.

[6] = test system: TNF-α mRNA expression in AMJ2-C11 cells; assay: TNF-α mRNA expression by RT-PCR in AMJ2-C11 cells; type: cell-based, mouse
Description: (§2) The effect of nicotine or DMPP treatment on AMJ2-C11 cells was tested on TNF-α, IL-10 mRNA expression by RT-PCR. These cytokines are involved in the development of pulmonary inflammatory diseases such as HP, asthma and sarcoidosis (52-55). […] Reference is made to FIG. 3 where results are expressed as a % of expression, 100% being attributed to the LPS alone group. The intensity of the band was obtained by dividing the intensity of the TNF-α band by that of β-actin. […] Reference is made to FIG. 4 where results are expressed as described in FIG. 5.

[7] = test system: IL-4 mRNA expression; assay: IL-4 mRNA expression induced by a 24 h LPS stimulation; type: cell-based; conditions: LPS stimulation 24 h, 40 μM
Description: The effect of agonist treatment on mRNA expression of IL-4, a cytokine that is well known to be involved in the development of asthma, was also tested (53). […] Cells were treated with different doses (40 to 160 μM for both nicotine and DMPP).

[8] = test system: CD86 expression on alveolar macrophages; assay: CD86 expression in SR-stimulated BAL cells of a normal patient; type: cell-based, human; conditions: SR-stimulated alveolar macrophages
Description: A broncho-alveolar lavage was performed on a normal patient, and alveolar macrophages were isolated.

[9] = test system: IFN-γ mRNA; conditions: pulmonary macrophages and lymphocytes from nicotine treated animals, anti-CD3 + IL-2
[10] = test system: IL-10 mRNA expression in AMJ2-C11 cells; assay: IL-10 mRNA expression by RT-PCR in AMJ2-C11 cells; type: cell-based, mouse
Description: as §2

[11] = test system: CD80 expression on AMJ2-C11 cells; assay: B7 (CD80) molecule expression on AMJ2-C11 cells; type: cell-based, mouse; conditions: LPS (0.1 μg/ml) stimulated, 40 μM for 48 h; LPS alone 38%
Description: The effects of nicotine and DMPP on B7 (CD80) molecule expression were tested in vitro. AMJ2-C11 cells (mouse alveolar macrophages, from the ATCC) were incubated with 40 μM nicotine or DMPP and stimulated with LPS (0.1 μg/ml) or SR antigen (50 μg/ml) for 48 hours.

[12] = test system: Saccharopolyspora rectivirgula (SR) antigen-induced HP in mice; conditions: IP nicotine 0.5 to 2.0 mg/kg twice a day
[13] = test system: LTC4 release by blood eosinophils; assay: LTC4 production by PAF-stimulated blood eosinophils (enzyme immunoassay); type: cell-based, human; conditions: for LTC4: eosinophils pre-incubated 18 hours with analog, PAF stimulated, untreated 1725.80
Description: Blood eosinophils, the most increased inflammatory cells in asthma, were isolated by negative selection using bead-conjugated anti-CD16 monoclonal antibody and magnetic activating cell sorting. Cells were pre-Incubated for 18 hours with the various DMPP analogs and then stimulated with 1 µM platelet-activating factor (PAF) to produce LTC4 which was measured by enzyme immunoassay.
Human blood eosinophils were isolated from blood of asthmatic patients, stimulated in vitro with platelet activating factor (PAF) to produce large amounts of LTC4, and treated or not with 80 μM ASM-002.

[14] = test system: mouse tracheal airway smooth muscle; assay: Isometric study on isolated mouse tracheas pre-contracted with metacholine; conditions: cumulative doses, p=0.002
Description: Tracheal rings were mounted isometrically to force transducers in organ baths containing Krebs bicarbonate solution at 37° C. and bubbled with 95% O2-5% CO2, pre-contracted with submaximal concentration of metacholine (10^−5) and cumulative doses of the analogs were added to the baths. Changes of tension are recorded. Results are expressed as a percentage of maximal contraction (FIG. 29).
(§3) As described previously, tracheal or bronchial rings were mounted isometrically to force transducers in organ baths containing Krebs bicarbonate solution at 37° C. and bubbled with 95% O2-5% CO2, pre-contracted with submaximal concentration of metacholine cumulative doses of ASM-002 added. Changes of tension are recorded. Results are expressed as a percentage of maximal contraction for mouse (FIG. 34, p=0.002), dog (FIG. 35, p=0.004) and human (FIG. 36)

[15] = test system: dog bronchial rings; assay: Isometric study on dog bronchial rings pre-contracted with metacholine; conditions: cumulative doses, p=0.004
Description: as §3

[16] = test system: lung inflammation in dogs sensitized to Ascaris suum; assay: Dog asthma model (Ascaris suum), cellular inflammation in bronchoalveolar lavages; type: in vivo; conditions: ASM-002 8 mg/kg (4 mg/kg 2× day in the food); prednisone 1 mg/kg 1× day; n=12
Description: as §1
Cellular inflammation was evaluated in the bronchoalveolar lavages.

[17] = test system: allergic inflammation of the lungs in ovalbumin-sensitized mice; assay: Ovalbumin-sensitized mouse asthma model, BAL cell counts; type: in vivo, Balb/c mice; conditions: Mus musculus, 72 h; intra-nasal 0.5 to 4 mg/kg/d for 3 days, n=8; read-out: ED50, cellular inflammation in the lungs (BAL cells)
Description: Groups of Balb/c mice were sensitized by intra-peritoneal injection of 20 μg OVA protein (chicken egg albumin; Sigma-Aldrich) emulsified in 2 mg aluminum hydroxide in PBS. After 4 weeks, challenge doses of 1.5%/50 μl OVA were administered intranasally. The challenge was performed daily for 3 consecutive days and then the mice assessed for allergic inflammation of the lungs 24 h after the last aerosol exposure. Groups of mice were treated with various concentrations of DMPP during the challenge period. Broncho-alveolar lavage (BAL) was performed and the fluid centrifuged at 400 g to separate cells from liquid.
Ovalbumin-sensitized mice (n=8) were challenged with the allergen and simultaneously treated intra-nasally with increasing concentrations of ASM-002 (0.5 to 4 mg/kg/d) for 3 days. The number of cells recovered by broncho-alveolar lavage was used as a measure of lung inflammation.

[18] = test system: human bronchial rings; assay: Isometric study on human bronchial rings pre-contracted with metacholine; conditions: cumulative doses
Description: as §3

[19] = test system: lung resistance after metacholine challenge; assay: Airway hyper-reactivity / lung resistance to metacholine in asthmatic mice (FlexiVENT); type: in vivo; conditions: ASM-002 4 mg/kg intra-nasal 3 days and 10 minutes prior to challenge; Salbutamol 10 minutes before
Description: Airway hyper-reactivity (AHR) in response to metacholine was measured in anesthetized, tracheotomized, ventilated mice using a computer-controlled ventilator (FlexiVENT™).
Increasing doses of metacholine (0 mg/kg-32.5 mg/kg) were administered through the jugular vein.
Lung response to a broncho-constrictive agent, metacholine, was measured by a Flexi-vent® apparatus. Ovalbumin-sensitized animals were treated intra-nasally with ASM-002 (4 mg/kg) during 3 days and 10 minutes prior to the metacholine challenge and compared to untreated OVA-sensitized animals. A negative control group of un-sensitized animals and a positive control group that received Salbutamol (Ventolin) 10 minutes before the metacholine challenge were also included.

[20] = test system: TNF release by human blood monocytes; assay: cells; type: cell-based
Description: Human monocytes were isolated from the blood of asthmatic patients by Ficoll-paque density gradient, let to adhere to tissue culture plates and stimulated with LPS (100 ng/ml) for 18 hours at 37° C. with or without increasing concentrations of nicotine. The release of TNF, a potent pro-inflammatory mediator, was measured in the cell culture supernatant by the ELISA method. Results are expressed as a percentage release from LPS-stimulated untreated cells (FIG. 28).
Tumor necrosis factor (TNF) is a mediator released in inflammatory states.
Human blood monocytes were isolated by Ficoll-paque density gradient, let to adhere to tissue culture plates and stimulated with LPS (100 ng/ml) for 18 hours at 37° C. with or without increasing concentrations of nicotine analogues.

[21] = purified blood eosinophils, Matrigel

In the case of `C[C@]12C=CC(=O)C=C1CC[C@@H]1[C@@H]2C(=O)C[C@@]2(C)[C@H]1CC[C@]2(O)C(=O)CO` [prednisone], the “dogs with decreased lung resistance / improved hyper-responsiveness” value [1] is reported as “None of the 12 dogs”.
In the case of `Clc1ccc(C2CC3CCC2N3)cn1` (stereo not drawn) [epibatidine, Epibatidine], the “inhibition of eosinophil transmigration” value [2, 21] is listed as “reduce blood eosinophil transmigration”, the “collagen A1 gene expression” value ([3]; primary normal fibroblasts, RT-PCR) is listed as “inhibitory effect is also observed” and the “analgesic potential, times that of morphine” value [4] is listed as “two hundred”. The “effect on SR-induced inflammation (BAL cells)” value ([5]; mouse, in vivo) was “marked inhibitory effect; also recorded: significant inhibitory effect”.
With `O=c1cccc2n1C[C@@H]1CNC[C@H]2C1` [cytisine] the “inhibition of eosinophil transmigration” value [2] was “reduce blood eosinophil transmigration”.
For `CN1CCCC1c1cccnc1` (stereo not drawn) [nicotine, Nicotine], the “inhibition of eosinophil transmigration” value [2, 21] was “reduce blood eosinophil transmigration”, the “reduction of TNF-α mRNA expression” value ([6]; LPS stimulated 24 h, 40 μM) was 98% and the “effect on TNF-α mRNA expression” value ([6]; SR-stimulated 24 h, only the 160 μM dose (80 and 160 μM tested)) was “had an effect on mRNA expression”. The “reduction of IL-4 mRNA expression” value [7] was at most 90%, the “reduction of IL-4 mRNA expression” value ([7]; listed as Nicotine) was “up to 92%” and the “collagen A1 gene expression” value ([3]; 1 and 10 μM) was “slight inhibitory effect”. The “collagen A1 gene expression” value ([3]; higher concentrations (above 10 μM)) was “no effects”, the “expression of CD86 relative to non-treated cells” value [8] was “about half of the expression” and the “expression of IFN-γ mRNA vs cells from non-treated animals” value [9] was “significantly lower expression”. The “reduction of IL-10 mRNA expression” value ([10]; LPS stimulated 24 h, 40 μM) was 88% and 87%, the “drop of IL-10 mRNA expression” value ([10]; SR-stimulated 24 h, 160 μM) was 60% and the “percentage of expression of CD80” value [11] was 20%. For the same compound, the “lymphocyte population in BAL” value [12] was “decrease in the lymphocyte population”, the “number of total cells in bronchoalveolar lavage (BAL)” value [12] was “significantly reduced” and the “effect on SR-induced inflammation (BAL cells)” value ([5]; intra-nasal every 6 h, 24 h after SR, DMPP 0.5 mg/kg, nicotine 0.5 mg/kg, epibatidine 2 μg/kg) was “marked inhibitory effect; also recorded: significant inhibitory effect”.
`C[N+]1(C)CCCN(c2ccccc2)CC1` (as salt: iodide) [ASM-002, 1,1-dimethyl-4-phenylhomopiperazinium iodide] gave a melting point of 158 to 160 °C.
In the case of `CC[N+]1(C)CCN(c2ccccc2)CC1` [ASM-003], the LTC4 [13] is reported as 613.90 pg/mL.
With `C[N+]1(C)CCCN(c2ccccc2)CC1` [ASM-002, 1,1-dimethyl-4-phenylhomopiperazinium iodide] the “dogs with decreased lung resistance / improved hyper-responsiveness” value [1] was 7 out of 12, the “relaxing effect on pre-contracted mice tracheas” value [14] was “relaxing effect” and the “relaxing effect on pre-contracted dog bronchi” value [15] was “relaxing effect”. For the same compound, the “cellular inflammation in the lungs of asthmatic dogs” value [16] was “inhibits significantly”, the ED50 [17] was 0.71 mg/kg and the “relaxing effect on pre-contracted human bronchi” value [18] was “relaxing effect”. For the same compound, the “lung resistance induced by metacholine compared to untreated OVA-sensitized mice” value [19] was “significant reduction (return to baseline levels)”, the LTC4 production ([13]; 80 μM, PAF, eosinophils of asthmatic patients, 6 patients, p=0.0007) was “significant inhibition” and the LTC4 [13] was 246.40 pg/mL. The TNF release ([20]; 40 μM, mean of 5 subjects) was “inhibits TNF release” and the EC50 ([20]; Monocyte, LPS-stimulated human blood monocytes, n=6, read-out: EC50, inhibition of TNF release) was 3000 nM.
In the case of `CC[N+]1(CC)CCN(c2ccccc2)CC1` [ASM-005], the “effect on TNF release” value ([20]; monocytes of asthmatic patients, LPS 100 ng/ml 18 h, n=8 to 10) is reported as “Except for ASM-005, all analogs tested had an inhibitory effect”.
For `CNC1(C)C2CCC(C2)C1(C)C` (stereo not drawn) [mecamylamine], the “effect of the antagonist on the DMPP inhibition of eosinophil transmigration” value ([2]; together with DMPP) was “reverses the effect of DMPP”.
